Among the data in article PMC9478340, “Inhibitors targeting the autophosphorylation of serine/threonine kinase of Streptococcus suis show potent antimicrobial activity” (Frontiers in Microbiology, 2022) are IC50 values, retold here.

SMILES strings stand for the structures.

T1 sequence (A0A0H3MXV7 entry or part of it): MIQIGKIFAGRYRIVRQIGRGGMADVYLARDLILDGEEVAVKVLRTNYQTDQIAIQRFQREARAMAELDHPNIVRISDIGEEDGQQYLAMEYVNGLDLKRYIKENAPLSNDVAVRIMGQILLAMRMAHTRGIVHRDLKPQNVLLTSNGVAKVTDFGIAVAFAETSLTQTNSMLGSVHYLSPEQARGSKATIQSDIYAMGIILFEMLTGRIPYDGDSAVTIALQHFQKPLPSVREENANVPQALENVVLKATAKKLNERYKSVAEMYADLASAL

This assay addresses T1, serine/threonine kinase (ssSTK) (Streptococcus suis, UniProt A0A0H3MXV7).
T1 construct: gene SSUBM407_0373; 6 × his-tagged kinase domain of ssSTK (ssSTK^KD, pET28a-stk^KD) is the wild-type expression construct described; the assay text says 'purified ssSTK'
Nature of the assay: Kinase-Glo ATP consumption assay of autophosphorylation; confirmed by anti-P-Thr western blot. The assay is classed as biochemical. On the technique in general: Kinase-Glo measures the ATP left after a reaction by luminescence.
In general, IC50 refers to the midpoint of a concentration-inhibition curve. A lower IC50 goes with greater potency in that assay. Compound `CN[C@@H]1C[C@H]2O[C@@](C)([C@@H]1OC)n1c3ccccc3c3c4c(c5c6ccccc6n2c5c31)C(=O)NC4` [Staurosporine] returned a concentration for half-maximal inhibition (IC50) of 8.97 µM.

With `COC(=O)[C@@]1(O)C[C@H]2O[C@]1(C)n1c3ccccc3c3c4c(c5c6ccccc6n2c5c31)C(=O)NC4` [K252a], the IC50 came out at 13.8 µM.

`O=C(Nc1c[nH]nc1-c1nc2cc(CN3CCOCC3)ccc2[nH]1)NC1CC1` [AT9283] showed an IC50 of 10.6 µM.

Take `c1cc(Nc2cc(C3CC3)[nH]n2)nc(Nc2ccc3[nH]cnc3c2)n1` [APY29]: the IC50 is 10.1 µM.
